Some results are limits rather than exact numbers.

Consider one compound from US20170151221A1, “PHARMACEUTICAL COMPOSITIONS COMPRISING CEFEPIME OR SULBACTAM” (priority 2014, published 2017).

Common to all, as to type: cell-based
The subject of assay [1] is A. baumannii NCTC 13302 [OXA 51, OXA 25]. Put plainly: MIC by agar dilution (Muller Hinton Agar, CLSI). To be noted: Acinetobacter baumannii, NCTC13302; agent alone; A. baumannii NCTC 13302; read-out: MIC. As to the method:
(§1) The antibacterial activity of combinations according to the invention was investigated against various bacterial strains. In a typical study, minimum inhibitory concentrations (MIC) were determined using Muller Hinton Agar (MHA) (BD, USA) according to Clinical and Laboratory Standards Institute (CLSI) recommendations, (Clinical and Laboratory Standards Institute (CLSI), Performance Standards for Antimicrobial Susceptibility Testing, 20th Informational Supplement, M 100-S20, Volume 30, No. 1, 2010). In short, the inocula were adjusted to deliver about 10^4 colony forming units (CFU) per spot with a multipoint inoculator (Applied Quality Services, UK). The plates were pored with doubling concentration range of the test combinations according to invention containing MHA. The plates were inoculated and were incubated at 35° C. for 18 hours.
(In general: In agar dilution the substance is mixed into plates at graded concentrations.)

Assay [2] deals with A. baumannii 1363934 [OXA 51, OXA 23]. Put plainly: MIC by agar dilution (Muller Hinton Agar, CLSI). The conditions noted are these: Acinetobacter baumannii; agent alone; A. baumannii 1363934; read-out: MIC. As to the method: as §1
For assay [3], the system named is A. baumannii S 8 [OXA 51, OXA 23]. Put plainly: MIC by agar dilution (Muller Hinton Agar, CLSI). To be noted: Acinetobacter baumannii; agent alone; A. baumannii S 8; read-out: MIC. Here is the method: as §1
Assay [4] concerns A. baumannii NCTC 13304 [OXA 51, OXA 27]. Put plainly: MIC by agar dilution (Muller Hinton Agar, CLSI). The conditions noted are these: Acinetobacter baumannii, NCTC13304; agent alone; A. baumannii NCTC 13304; read-out: MIC. As to the method: as §1
The test system of assay [5] is A. baumannii 1449880 [OXA 51, OXA 23]. Put plainly: MIC by agar dilution (Muller Hinton Agar, CLSI). To be noted: Acinetobacter baumannii; agent alone; A. baumannii 1449880; read-out: MIC. Here is the method: as §1
Assay [6] concerns A. baumannii J 145 [OXA 51, OXA 24]. Put plainly: MIC by agar dilution (Muller Hinton Agar, CLSI). The conditions noted are these: Acinetobacter baumannii; agent alone; A. baumannii J 145; read-out: MIC. Here is the method: as §1
The subject of assay [7] is Acinetobacter baumannii NCTC 13301 producing Carbapenemase hydrolyzing OXA 23 enzyme. Put plainly: Time kill study. To be noted: agent alone at 8 mcg/ml. Here is the method:
(§2) The synergistic killing effect of the combinations according to invention was studied by performing typical time kill studies. Typically, freshly grown cultures were diluted to the required cell density (initial starting inoculum) in Cation adjusted Muller Hinton broth medium (BD, USA). The antibacterial agents at the required concentrations were added into the culture-containing medium either alone or in combination. The samples were incubated under shaking condition (120 rpm) at 37° C. Enumeration of viable bacterial count was undertaken, every 2 hour, by diluting in normal saline and plating on to the Tryptic Soya Agar plates (BD, USA). The plates were incubated for 24 hours to arrive at the viable bacterial count. […] The decrease of 1 Log CFU/ml, after administration of combination of present invention, in comparison to initial bacterial count corresponds to 90% killing of bacteria. Similarly, 2 Log CFU/ml reductions corresponds to 99% killing of bacteria and 3 Log CFU/ml reductions is equal to 99.9% killing of bacteria.
(§3) The assay without any antibacterial agent was taken as control.

Assay [8] concerns Acinetobacter baumannii NCTC 13302 producing carbapenemase hydrolyzing OXA 25 enzyme. Put plainly: Time kill study. To be noted: agent alone at 8 mcg/ml. Here is the method: as §2, §3

Take `C[C@@H](O)[C@H]1C(=O)N2C(C(=O)O)=C(SCCN=CN)C[C@H]12` [Imipenem]: the MIC (commonly the least concentration at which growth counts as inhibited) in assay [1] was over 32 µg/mL; in assay [2], over 32 µg/mL; in assay [3] it was 16 µg/mL; in assay [4], over 32 µg/mL; in assay [5], 8 µg/mL; in assay [6], over 32 µg/mL. In addition, the “Bacterial count (Log10 CFU/ml)” value turned out to be 6.32 Log10 CFU/ml in assay [7] (0 hours); 8.20 Log10 CFU/ml in assay [7] (2 hours); 8.43 Log10 CFU/ml in assay [7] (4 hours); 8.43 Log10 CFU/ml in assay [7] (6 hours); 8.51 Log10 CFU/ml in assay [7] (8 hours); 6.30 Log10 CFU/ml in assay [8] (0 hours). In addition, the “Bacterial count (Log10 CFU/ml)” value in assay [8] (2 hours) is given as 8.079 Log10 CFU/ml; in assay [8] (4 hours), 8.703 Log10 CFU/ml; in assay [8] (6 hours), 8.176 Log10 CFU/ml; in assay [8] (8 hours) it was 8.38 Log10 CFU/ml.
